Data as given in patent publication US6737383B1, “Herbicidal oxadiazolidines” (priority 1999, dated 2004).

Key:
giant foxtail = experiment: Test B pre/postemergence giant foxtail; assay type: in vivo, Setaria faberii
How it was run: (§1)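 Herbicidal effect was estimated by eye on a ten-point control scale after plants spent twelve to sixteen days in a greenhouse following soil or foliar treatment. Foliar sprays targeted plants at one to four leaves; all doses were formulated in a non-phytotoxic solvent with surfactant.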

crabgrass = experiment: Test B pre/postemergence crabgrass; assay type: in vivo, Digitaria sanguinalis
How it was run: as §1

surinam grass = experiment: Test B pre/postemergence surinam grass; assay type: in vivo, Brachiaria decumbens
How it was run: as §1

morningglory = experiment: Test B pre/postemergence morningglory; assay type: in vivo, Ipomoea hederacea
How it was run: as §1

soybean = experiment: Test B pre/postemergence soybean; assay type: in vivo, Glycine max
How it was run: as §1

rape = experiment: Test B pre/postemergence rape; assay type: in vivo, Brassica napus
How it was run: as §1

purple nutsedge = experiment: Test B pre/postemergence purple nutsedge; assay type: in vivo, Cyperus rotundus
How it was run: as §1

pigweed = experiment: Test B pre/postemergence pigweed; assay type: in vivo, Amaranthus retroflexus
How it was run: as §1

corn = experiment: Test B pre/postemergence corn; assay type: in vivo, Zea mays
How it was run: as §1

bedstraw = experiment: Test B pre/postemergence bedstraw; assay type: in vivo, Galium aparine
How it was run: as §1

wheat = experiment: Test B pre/postemergence wheat; assay type: in vivo, Triticum aestivum
How it was run: as §1

duck salad = experiment: Test B flood test duck salad; assay type: in vivo, Heteranthera limosa
How it was run: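 Read-out is a visual response score from 0 (no effect) to 10 (complete control), assigned by comparison with untreated controls. Treatment was applied at the 2-leaf stage, and plants stayed in the greenhouse for twelve to sixteen days before scoring.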

cocklebur = experiment: Test B pre/postemergence cocklebur; assay type: in vivo, Xanthium strumarium
How it was run: as §1

velvetleaf = experiment: Test B pre/postemergence velvetleaf; assay type: in vivo, Abutilon theophrasti
How it was run: as §1

sugar beet = experiment: Test B pre/postemergence sugar beet; assay type: in vivo, Beta vulgaris
How it was run: as §1

[1] = Postemergence, Rate 62 g/ha, scale 0 to 10, 0 is no effect, 10 is complete control
[2] = Preemergence, Rate 62 g/ha, scale 0 to 10 (0 no effect, 10 complete control)
[3] = Preemergence, Rate 125 g/ha, scale 0 to 10 (0 no effect, 10 complete control)
[4] = Preemergence, Rate 250 g/ha, scale of 0 to 10 where 0 is no effect and 10 is complete control
[5] = Preemergence, Rate 500 g/ha, scale 0 (no effect) to 10 (complete control)
[6] = Rate 125 g/ha, Postemergence, scale 0 to 10, 0 no effect, 10 complete control
[7] = Rate 500 g/ha, Postemergence, scale 0 to 10, 0 no effect, 10 complete control
[8] = Postemergence, Rate 250 g/ha, scale 0 to 10, 0 no effect, 10 complete control

COc1cccc(C)c1-n1c(=O)on(C(=O)N(c2ccc(F)cc2F)C(C)C)c1=O [Compound 74]
0: Giant foxtail plant response rating (giant foxtail; [1]) | Giant foxtail plant response rating (giant foxtail; [6]) | Crabgrass plant response rating (crabgrass; [1]) | B. signalgrass plant response rating (surinam grass; [1]) | B. signalgrass plant response rating (surinam grass; [8]) | B. signalgrass plant response rating (surinam grass; [2]) | Plant response rating, B. signalgrass (surinam grass; [3]) | Plant response rating, B. signalgrass (surinam grass; [4]) | B. signalgrass plant response rating (surinam grass; [5]) | B. signalgrass plant response rating (surinam grass; [6]) | Morningglory plant response rating (morningglory; [2]) | Plant response rating, Morningglory (morningglory; [3]) | Plant response rating, Morningglory (morningglory; [4]) | Morningglory plant response rating (morningglory; [5]) | Soybean plant response rating (soybean; [1]) | Soybean plant response rating (soybean; [2]) | Plant response rating, Soybean (soybean; [3]) | Plant response rating, Soybean (soybean; [4]) | Soybean plant response rating (soybean; [5]) | Rape plant response rating (rape; [1]) | Rape plant response rating (rape; [8]) | Rape plant response rating (rape; [2]) | Plant response rating, Rape (rape; [3]) | Plant response rating, Rape (rape; [4]) | Rape plant response rating (rape; [6]) | Nutsedge plant response rating (purple nutsedge; [1]) | Nutsedge plant response rating (purple nutsedge; [8]) | Nutsedge plant response rating (purple nutsedge; [2]) | Plant response rating, Nutsedge (purple nutsedge; [3]) | Plant response rating, Nutsedge (purple nutsedge; [4]) | Nutsedge plant response rating (purple nutsedge; [5]) | Nutsedge plant response rating (purple nutsedge; [6]) | Nutsedge plant response rating (purple nutsedge; [7]) | Redroot pigweed plant response rating (pigweed; [1]) | Redroot pigweed plant response rating (pigweed; [8]) | Redroot pigweed plant response rating (pigweed; [2]) | Plant response rating, Redroot pigweed (pigweed; [3]) | Plant response rating, Redroot pigweed (pigweed; [4]) | Redroot pigweed plant response rating (pigweed; [6]) | Redroot pigweed plant response rating (pigweed; [7]) | Corn plant response rating (corn; [1]) | Corn plant response rating (corn; [8]) | Corn plant response rating (corn; [2]) | Plant response rating, Corn (corn; [3]) | Plant response rating, Corn (corn; [4]) | Corn plant response rating (corn; [5]) | Corn plant response rating (corn; [6]) | Corn plant response rating (corn; [7]) | Bedstraw plant response rating (bedstraw; [1]) | Bedstraw plant response rating (bedstraw; [2]) | Plant response rating, Bedstraw (bedstraw; [3]) | Plant response rating, Bedstraw (bedstraw; [4]) | Bedstraw plant response rating (bedstraw; [5]) | Bedstraw plant response rating (bedstraw; [6]) | Wheat plant response rating (wheat; [1]) | Wheat plant response rating (wheat; [8]) | Wheat plant response rating (wheat; [2]) | Plant response rating, Wheat (wheat; [3]) | Plant response rating, Wheat (wheat; [4]) | Wheat plant response rating (wheat; [5]) | Wheat plant response rating (wheat; [6]) | Ducksalad plant response rating (duck salad; [1]) | Ducksalad plant response rating (duck salad; Rate 125 g/ha, Postemergence section (flood test species), scale 0 to 10, 0 no effect, 10 complete control) | Ducksalad plant response rating (duck salad; Rate 500 g/ha, listed under Postemergence (flood test species), scale 0 to 10, 0 no effect, 10 complete control) | Ducksalad plant response rating (duck salad; flood test, listed under Postemergence, Rate 250 g/ha, scale 0 to 10, 0 no effect, 10 complete control) | Cocklebur plant response rating (cocklebur; [1]) | Cocklebur plant response rating (cocklebur; [8]) | Cocklebur plant response rating (cocklebur; [2]) | Plant response rating, Cocklebur (cocklebur; [3]) | Plant response rating, Cocklebur (cocklebur; [4]) | Cocklebur plant response rating (cocklebur; [5]) | Cocklebur plant response rating (cocklebur; [6]) | Velvetleaf plant response rating (velvetleaf; [2]) | Plant response rating, Velvetleaf (velvetleaf; [3]) | Plant response rating, Velvetleaf (velvetleaf; [4]) | Velvetleaf plant response rating (velvetleaf; [5]) | Sugarbeets plant response rating (sugar beet; [1]) | Sugarbeets plant response rating (sugar beet; [8]) | Sugarbeets plant response rating (sugar beet; [2]) | Plant response rating, Sugarbeets (sugar beet; [3]) | Sugarbeets plant response rating (sugar beet; [6]) | Sugarbeets plant response rating (sugar beet; [7])
10: Giant foxtail plant response rating (giant foxtail; [5])
2: Giant foxtail plant response rating (giant foxtail; [7]) | Crabgrass plant response rating (crabgrass; [2]) | Plant response rating, Crabgrass (crabgrass; [3]) | Crabgrass plant response rating (crabgrass; [6]) | B. signalgrass plant response rating (surinam grass; Rate 500 g/ha, Postemergence, scale of 0 to 10 where 0 is no effect and 10 is complete control) | Morningglory plant response rating (morningglory; [1]) | Morningglory plant response rating (morningglory; [6]) | Rape plant response rating (rape; [7]) | Velvetleaf plant response rating (velvetleaf; [1]) | Plant response rating, Sugarbeets (sugar beet; [4])
3: Giant foxtail plant response rating (giant foxtail; [2]) | Morningglory plant response rating (morningglory; [8]) | Redroot pigweed plant response rating (pigweed; [5]) | Wheat plant response rating (wheat; [7])
7: Plant response rating, Giant foxtail (giant foxtail; [3]) | Crabgrass plant response rating (crabgrass; [7])
1: Soybean plant response rating (soybean; [8]) | Soybean plant response rating (soybean; [7])
8: Plant response rating, Giant foxtail (giant foxtail; [4]) | Crabgrass plant response rating (crabgrass; [5]) | Bedstraw plant response rating (bedstraw; [7])
5: Plant response rating, Crabgrass (crabgrass; [4]) | Rape plant response rating (rape; [5]) | Bedstraw plant response rating (bedstraw; [8])
4: Crabgrass plant response rating (crabgrass; [8]) | Morningglory plant response rating (morningglory; [7]) | Cocklebur plant response rating (cocklebur; [7]) | Velvetleaf plant response rating (velvetleaf; [8]) | Velvetleaf plant response rating (velvetleaf; [6]) | Velvetleaf plant response rating (velvetleaf; [7]) | Sugarbeets plant response rating (sugar beet; [5])
